The supplement of paper PMC7840683
Where a name gives a salt, the structure may show the parent alone. ± gives the standard deviation of the averaged measurements.

Tested on: HepaRG
Experiment: LDH release cytotoxicity, % of total lysis control; higher = more cytotoxic
Conditions: 48 h
In short: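 The CytoTox-ONE kit was used to read LDH in 50 µL spent medium as resorufin fluorescence on a Tecan Safire, with 0.1% Triton X added to total lysis wells. Beforehand, single-lot HepaRG cells on collagen I-coated 96-well plates had been exposed in duplicate for 48 h to eight-point half-log series (top 100 µM) in serum-free induction medium containing 0.5% DMSO. Percent cytotoxicity was normalized against on-plate vehicle and total lysis controls and averaged over duplicates.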

COC(=O)c1ccc(C(=O)OC)cc1 [Dimethyl terephthalate]
Conditions	LDH release cytotoxicity [%]
0.03162 µM	0.0234 ± 1
0.1 µM	-0.391 ± 1.6
0.3162278 µM	-1.12 ± 0.61
1 µM	-0.654 ± 0.052
3.16228 µM	-0.533 ± 0.33
10 µM	0.0948 ± 0.34
31.6228 µM	0.365 ± 0.88
100 µM	2.87 ± 0.72

CN(C)CCO [Dimethylaminoethanol]
Conditions	LDH release cytotoxicity [%]
0.03162 µM	0.182 ± 0.62
0.1 µM	-0.302 ± 1.6
0.3162278 µM	-0.0529 ± 0.18
1 µM	-1.37 ± 0.049
3.16228 µM	-1.09 ± 1.8
10 µM	-1.02 ± 0.62
31.6228 µM	-0.601 ± 0.24
100 µM	1.07 ± 0.52

CN(C)C(=O)Cl [Dimethylcarbamoyl chloride]
Conditions	LDH release cytotoxicity [%]
0.03162 µM	-1.3 ± 0.049
0.1 µM	-0.716 ± 0.62
0.3162278 µM	-0.579 ± 0.073
1 µM	-0.789 ± 0.59
3.16228 µM	-0.264 ± 0.42
10 µM	-0.4 ± 0.096
31.6228 µM	-0.611 ± 0.2
100 µM	0.647 ± 0.56

CC(C)(C)C(O)C(=Cc1ccc(Cl)cc1Cl)n1cncn1 (stereo not given) [Diniconazole]
Conditions	LDH release cytotoxicity [%]
0.03162 µM	-0.57 ± 1.1
0.1 µM	-1.77 ± 1.1
0.3162278 µM	-0.96 ± 0.019
1 µM	-0.38 ± 0.69
3.16228 µM	0.433 ± 0.38
10 µM	-0.346 ± 1.4
31.6228 µM	0.723 ± 1.1
100 µM	1.41 ± 0.97

CCC(C)c1cc([N+](=O)[O-])cc([N+](=O)[O-])c1O (stereo not given) [Dinoseb]
Conditions	LDH release cytotoxicity [%]
0.03162 µM	-1.28 ± 0.054
0.1 µM	0.378 ± 0.78
0.3162278 µM	-1.3 ± 0.076
1 µM	-1.58 ± 0.37
3.16228 µM	-0.982 ± 1
10 µM	-0.113 ± 0.038
31.6228 µM	0.81 ± 0.59
100 µM	2.87 ± 1.4

CCCCCCCCOC(=O)CCCCCCCCC(=O)OCCCCCCCC [Dioctyl sebacate]
Conditions	LDH release cytotoxicity [%]
0.03162 µM	-0.979 ± 0.56
0.1 µM	-1.87 ± 0.14
0.3162278 µM	-1.9 ± 0.45
1 µM	-1.13 ± 0.44
3.16228 µM	-1.59 ± 0.11
10 µM	-0.887 ± 0.82
31.6228 µM	5.14 ± 1.2
100 µM	68.74 ± 0.047

CCCCCOC(=O)c1ccccc1C(=O)OCCCCC [Dipentyl phthalate]
Conditions	LDH release cytotoxicity [%]
0.03162 µM	-0.338 ± 1.3
0.1 µM	-1.03 ± 0.79
0.3162278 µM	-1.76 ± 0.55
1 µM	-0.0572 ± 0.49
3.16228 µM	10.4 ± 0.42
10 µM	55.1 ± 3.3
31.6228 µM	47.6 ± 0.78
100 µM	43.3 ± 0.68

CN(C)CCOC(c1ccccc1)c1ccccc1 [Diphenhydramine hydrochloride]
Conditions	LDH release cytotoxicity [%]
0.03162 µM	-0.0757 ± 0.11
0.1 µM	-1.04 ± 0.17
0.3162278 µM	-0.977 ± 0.34
1 µM	-1.8 ± 1.1
3.16228 µM	-1.62 ± 0.031
10 µM	-0.793 ± 0.26
31.6228 µM	-0.772 ± 0.23
100 µM	1.1 ± 0.12

O=C(Oc1ccccc1)c1cccc(C(=O)Oc2ccccc2)c1 [Diphenyl isophthalate]
Conditions	LDH release cytotoxicity [%]
0.03162 µM	-0.961 ± 0.23
0.1 µM	-0.451 ± 0.024
0.3162278 µM	-0.0836 ± 0.51
1 µM	-0.13 ± 0.26
3.16228 µM	-0.548 ± 1.1
10 µM	-0.00904 ± 1.2
31.6228 µM	0.842 ± 0.83
100 µM	2.16 ± 1.3

c1ccc(Nc2ccccc2)cc1 [Diphenylamine]
Conditions	LDH release cytotoxicity [%]
0.03162 µM	-0.79 ± 0.82
0.1 µM	-0.775 ± 0.35
0.3162278 µM	-0.986 ± 0.56
1 µM	-1.44 ± 0.19
3.16228 µM	-1.13 ± 0.35
10 µM	-1 ± 0.56
31.6228 µM	0.0424 ± 0.62
100 µM	3.57 ± 0.064

CCCOC(=O)c1ccc(C(=O)OCCC)nc1 [Dipropyl 2,5-pyridinedicarboxylate]
Conditions	LDH release cytotoxicity [%]
0.03305 µM	-4.74 ± 0.19
0.1045 µM	-5.46 ± 0.7
0.330458 µM	-5.78 ± 1.4
1.045 µM	-4.98 ± 2.6
3.30458 µM	-5.75 ± 0.92
10.45 µM	-5.51 ± 1.6
33.0458 µM	-4.96 ± 1.7
104.5 µM	-4.42 ± 1.1

COCC(C)OCC(C)O (stereo not given) [Dipropylene glycol monomethyl ether]
Conditions	LDH release cytotoxicity [%]
0.03162 µM	-1.67 ± 0.049
0.1 µM	-1.92 ± 0.76
0.3162278 µM	-1.46 ± 0.17
1 µM	-1.8 ± 0.051
3.16228 µM	-1.39 ± 0.54
10 µM	-0.852 ± 0.24
31.6228 µM	0.852 ± 0.72
100 µM	0.163 ± 0.47

CC(CO)OC(C)CO.CC(O)COCC(C)O (stereo not given) [Dipropylene glycol]
Conditions	LDH release cytotoxicity [%]
0.03162 µM	-0.933 ± 0.81
0.1 µM	-1.33 ± 0.44
0.3162278 µM	-1.72 ± 1.1
1 µM	-2.46 ± 0.3
3.16228 µM	-1.81 ± 0.92
10 µM	-1.07 ± 0.57
31.6228 µM	-0.766 ± 1.3
100 µM	1.27 ± 1.3

c1cc[n+]2c(c1)-c1cccc[n+]1CC2 [Diquat dibromide monohydrate]
Conditions	LDH release cytotoxicity [%]
0.03162 µM	-1.01 ± 0.048
0.1 µM	0.359 ± 1.1
0.3162278 µM	0.818 ± 0.33
1 µM	0.472 ± 0.19
3.16228 µM	0.215 ± 0.51
10 µM	1.64 ± 0.66
31.6228 µM	-0.425 ± 0.39
100 µM	2.13 ± 0.58

CCOP(=S)(OCC)SCCSCC [Disulfoton]
Conditions	LDH release cytotoxicity [%]
0.03162 µM	-1.14 ± 0.34
0.1 µM	-1.12 ± 0.75
0.3162278 µM	-1.03 ± 0.2
1 µM	-1.51 ± 0.2
3.16228 µM	-1.34 ± 0.37
10 µM	-1.32 ± 0.63
31.6228 µM	-1.01 ± 0.54
100 µM	-0.345 ± 0.13

CSC(=O)c1c(C(F)F)nc(C(F)(F)F)c(C(=O)SC)c1CC(C)C [Dithiopyr]
Conditions	LDH release cytotoxicity [%]
0.0140721 µM	-1.51 ± 2.5
0.0445 µM	-2.25 ± 0.63
0.1407214 µM	-2.63 ± 0.43
0.445 µM	-3.81 ± 0.56
1.4072136 µM	-3.84 ± 0.3
4.45 µM	-5.82 ± 2.5
14.072136 µM	-1.76 ± 2.3
44.5 µM	-1.31 ± 1.6

CN(C)C(=O)Nc1ccc(Cl)c(Cl)c1 [Diuron]
Conditions	LDH release cytotoxicity [%]
0.0314647 µM	-0.32 ± 1.2
0.0995 µM	-1.23 ± 1.5
0.3146466 µM	-1.57 ± 0.64
0.995 µM	-0.727 ± 0.72
3.14647 µM	-1.47 ± 0.9
9.95 µM	-1.77 ± 0.071
31.4647 µM	-0.974 ± 0.13
99.5 µM	19 ± 4.1

CCCCC(CC)COC(=O)CC(C(=O)OCC(CC)CCCC)S(=O)(=O)O (stereo not given) [Docusate sodium]
Conditions	LDH release cytotoxicity [%]
0.03162 µM	-1.66 ± 0.36
0.1 µM	-0.373 ± 0.42
0.3162278 µM	-0.361 ± 0.69
1 µM	-0.887 ± 0.12
3.16228 µM	-0.195 ± 0.3
10 µM	-1.39 ± 0.72
31.6228 µM	1.52 ± 0.59
100 µM	75.5 ± 1.1

CCCCCCCCCCCCc1cccc(S(=O)(=O)O)c1 [Dodecylbenzene sulfonate triethanolamine(1:1)]
Conditions	LDH release cytotoxicity [%]
0.02846 µM	-1.49 ± 0.8
0.09 µM	-0.848 ± 1.3
0.284605 µM	-1.53 ± 0.58
0.9 µM	-1.22 ± 0.78
2.84605 µM	-0.852 ± 0.19
9 µM	-1.11 ± 0.016
28.4605 µM	-0.984 ± 0.56
90 µM	5.69 ± 0.45

CCCCCCCCCCCCc1ccccc1 [Dodecylbenzene]
Conditions	LDH release cytotoxicity [%]
0.03162 µM	-2.1 ± 0.14
0.1 µM	-1.71 ± 0.15
0.3162278 µM	-1.86 ± 0.75
1 µM	-2.59 ± 0.8
3.16228 µM	-2.08 ± 0.19
10 µM	-0.672 ± 0.39
31.6228 µM	-1.17 ± 0.31
100 µM	1.25 ± 1.2
